“Also recorded” adds a separate entry of the source. Ends that are not written are not given here.
Tests used:
C. jeikeium = test: Kill or inhibit growth/proliferation; morphology, biofilm and growth disruption (Tables 5, 6); assay type: cell-based, Corynebacterium jeikeium; set-up: key: A: Peptide aggregates; B: Less hyphal formation; Clumps; Diffuse clumps and small polyps; F: Diffuse growth; H: Thin; I: Growth inhibition; Microcolony formation; Rippled; Small polyps; Thick; W: Halo formation on top, microlonies on bottom; note: test concentration or dose not given here
E. faecalis = test: as above; assay type: cell-based, Enterococcus faecalis; set-up: key: A: Peptide aggregates; B: Less hyphal formation; Clumps; Diffuse clumps and small polyps; F: Diffuse growth; H: Thin; I: Growth inhibition; Microcolony formation; Rippled; Small polyps; Thick; W: Halo formation on top, microlonies on bottom
M. luteus = test: as above; assay type: cell-based, Micrococcus luteus; set-up: key: A: Peptide aggregates; B: Less hyphal formation; Clumps; Diffuse clumps and small polyps; F: Diffuse growth; H: Thin; I: Growth inhibition; Microcolony formation; Rippled; Small polyps; Thick; W: Halo formation on top, microlonies on bottom; note: test concentration or dose not given here
MRSA = test: as above; assay type: cell-based, Methicillin-resistant Staphylococcus aureus; set-up: key: A: Peptide aggregates; B: Less hyphal formation; Clumps; Diffuse clumps and small polyps; F: Diffuse growth; H: Thin; I: Growth inhibition; Microcolony formation; Rippled; Small polyps; Thick; W: Halo formation on top, microlonies on bottom
S. epidermidis = test: as above; assay type: cell-based, Staphylococcus epidermidis; set-up: key: A: Peptide aggregates; B: Less hyphal formation; Clumps; Diffuse clumps and small polyps; F: Diffuse growth; H: Thin; I: Growth inhibition; Microcolony formation; Rippled; Small polyps; Thick; W: Halo formation on top, microlonies on bottom
S. pneumoniae = test: as above; assay type: cell-based, Streptococcus pneumoniae; set-up: key: A: Peptide aggregates; B: Less hyphal formation; Clumps; Diffuse clumps and small polyps; F: Diffuse growth; H: Thin; I: Growth inhibition; Microcolony formation; Rippled; Small polyps; Thick; W: Halo formation on top, microlonies on bottom
C. jejuni = test: as above; assay type: cell-based, Campylobacter jejuni; set-up: key: A: Peptide aggregates; B: Less hyphal formation; Clumps; Diffuse clumps and small polyps; F: Diffuse growth; H: Thin; I: Growth inhibition; Microcolony formation; Rippled; Small polyps; Thick; W: Halo formation on top, microlonies on bottom; note: test concentration or dose not given here
E. coli = test: as above; assay type: cell-based, Escherichia coli; set-up: key: A: Peptide aggregates; B: Less hyphal formation; Clumps; Diffuse clumps and small polyps; F: Diffuse growth; H: Thin; I: Growth inhibition; Microcolony formation; Rippled; Small polyps; Thick; W: Halo formation on top, microlonies on bottom
C. albicans = test: as above; assay type: cell-based, Candida albicans; set-up: key: A: Peptide aggregates; B: Less hyphal formation; Clumps; Diffuse clumps and small polyps; F: Diffuse growth; H: Thin; I: Growth inhibition; Microcolony formation; Rippled; Small polyps; Thick; W: Halo formation on top, microlonies on bottom
microorganisms = test: Peptides having multiple activities (targeting/binding, antimicrobial, growth or phenotype altering)
Description: In certain embodiments, peptides described herein can have multiple activities. Thus for example, a peptide can have both binding/targeting activity and antimicrobial activity. Such peptides can be used, e.g., in a chimeric construct, for any or all of these properties. Thus, for example, a peptide designated “B” in Table 8 can be used as a targeting peptide. If it is also designated G or M it can also be used for antimicrobial activity.

B. subtilis = test: Kill or inhibit growth/proliferation; morphology, biofilm and growth disruption (Tables 5, 6); assay type: cell-based, Bacillus subtilis; set-up: key: A: Peptide aggregates; B: Less hyphal formation; Clumps; Diffuse clumps and small polyps; F: Diffuse growth; H: Thin; I: Growth inhibition; Microcolony formation; Rippled; Small polyps; Thick; W: Halo formation on top, microlonies on bottom; note: test concentration or dose not given here
[1] = system: microorganisms (e.g., bacteria, yeasts, fungi); test: Targeting peptide binding to target microorganisms (Table 3); settings: preferably 1x PBS; for Target(s): microorganism(s) the targeting peptide binds; for Target(s) (microorganisms bound by the targeting peptide): peptide binding in aqueous buffers varied by peptide solubility
[2] = peptide binding conducted in aqueous buffers varied by peptide solubility
Throughout, for Organism, effect (morphology, biofilm and growth disruption): test concentration or dose not given here.
Throughout, for Organism, effect: test concentration or dose not given here.

| Substance | Organism, effect (E. faecalis) | Organism, effect (MRSA) | Organism, effect (S. epidermidis) | Organism, effect (S. pneumoniae) | Organism, effect (C. albicans) | Activities (microorganisms) | Target(s) (microorganisms bound by the targeting peptide) [1] | further results |
| --- | --- | --- | --- | --- | --- | --- | --- | --- |
| PF-057: peptide having multiple activities (chain 1 TMIVISIPRFEEYMKARHKKWM; chain 2 TMIVISIPRFEEYMKARHKKWM; Peptide with targeting and/or antimicrobial activity) | E. faecalis (A) | MRSA (M) | S. epidermidis (D) | S. pneumoniae (R) | C. albicans (A) | G B | – | Organism, effect (C. jeikeium): C. jeikeium (A); Organism, effect (M. luteus): M. luteus (C); Organism, effect (C. jejuni): C. jejuni (D); Organism, effect (E. coli): E. coli (M) |
| PF-175: peptide having multiple activities (RRRPAGQRPEKASQAMIAA; Peptide with targeting and/or antimicrobial activity) | – | – | – | S. pneumoniae (A) | C. albicans (B) | G B | – | Organism, effect (B. subtilis): B. subtilis (D); Organism, effect (M. luteus): M. luteus (S); Organism, effect (C. jejuni): C. jejuni (M); Target(s) ([1]; binding in aqueous buffers depending on peptide solubility): S. epidermidis; also recorded: E. faecalis |
| PF-426: peptide having multiple activities (MLQKYTQMISVTKCIITKNKKTQENVDAYN; Peptide with targeting and/or antimicrobial activity) | E. faecalis (D) | MRSA (D) | S. epidermidis (D) | S. pneumoniae (D) | C. albicans (A) | G B | – | Organism, effect (C. jejuni): C. jejuni (D); Organism, effect (E. coli): E. coli (C); Target(s) [1, 2]: S. epidermidis and E. coli and P. aeruginosa and C. albicans and MRSA and S. pneumoniae and E. faecalis and C. jeikeium |
| PF-526: peptide having multiple activities (chain 1 VLLLFIFQPFQKQLL-NH2; chain 2 VLLLFIFQPFQKQLL-NH2) | – | MRSA (C) | S. epidermidis (C) | S. pneumoniae (R) | C. albicans (C) | G B | – | Organism, effect (E. coli): E. coli (R) |
| PF-528: peptide having multiple activities (chain 1 LVDVVVLIRRHLPKSCS-NH2; chain 2 LVDVVVLIRRHLPKSCS-NH2; cysteine pairing not given here) | – | MRSA (H) | S. epidermidis (H) | S. pneumoniae (R) | C. albicans (C) | G B | – | Organism, effect (E. coli): E. coli (H); Target(s) [1, 2]: S. epidermidis and P. aeruginosa and C. albicans and MRSA and S. pneumoniae and E. faecalis |
| PF-617: peptide having multiple activities (PMNAAEPE; Peptide with targeting and/or antimicrobial activity) | E. faecalis (H) | – | – | S. pneumoniae (I) | C. albicans (H) | G B | P. aeruginosa; also recorded: C. albicans | – |
| PF-627: peptide having multiple activities (INDLLSYFTLHEK; Peptide with targeting and/or antimicrobial activity) | E. faecalis (H) | MRSA (R) | S. epidermidis (H) | S. pneumoniae (I) | C. albicans (B) | G B | S. epidermidis and P. aeruginosa and MRSA and S. pneumoniae and E. faecalis and C. jeikeium | – |
| PF-636: peptide having multiple activities (chain 1 LVRLA; chain 2 LVRLA; Peptide with targeting and/or antimicrobial activity) | E. faecalis (H) | – | – | S. pneumoniae (H) | C. albicans (B) | G B | S. epidermidis and C. albicans and MRSA and S. pneumoniae and E. faecalis | Organism, effect (B. subtilis): B. subtilis (H) |
| PF-639: peptide having multiple activities (chain 1 QATQIKSWIDRLLVSED; chain 2 QATQIKSWIDRLLVSED; Peptide with targeting and/or antimicrobial activity) | E. faecalis (H) | MRSA (R) | – | S. pneumoniae (I) | C. albicans (B) | G B | S. pneumoniae; also recorded: C. jeikeium | – |
| PF-640: peptide having multiple activities (chain 1 MGDINRNF; chain 2 MGDINRNF; Peptide with targeting and/or antimicrobial activity) | E. faecalis (H) | – | – | S. pneumoniae (I) | C. albicans (B) | G B | C. albicans | – |
| PF-654 (chain 1 LSGRLAGRR; chain 2 LSGRLAGRR; Peptide with targeting and/or antimicrobial activity) | – | – | – | – | – | – | Mycobacteria spp | Organism, effect (morphology, biofilm and growth disruption) (MRSA): MRSA (R); Organism, effect (morphology, biofilm and growth disruption) (S. pneumoniae): S. pneumoniae (A); Organism, effect (morphology, biofilm and growth disruption) (C. albicans): C. albicans (B) |
| PF-684 (chain 1 RKLSLASGFALWRRSLV; chain 2 RKLSLASGFALWRRSLV; Peptide with targeting and/or antimicrobial activity) | – | – | – | – | – | – | Mycobacteria spp | Organism, effect (morphology, biofilm and growth disruption) (E. faecalis): E. faecalis (A); Organism, effect (morphology, biofilm and growth disruption) (S. pneumoniae): S. pneumoniae (C); Organism, effect (morphology, biofilm and growth disruption) (C. albicans): C. albicans (B) |
| PF-686: peptide having multiple activities (chain 1 LAVLMGYIGYRGWSGKRHINRQ; chain 2 LAVLMGYIGYRGWSGKRHINRQ; Peptide with targeting and/or antimicrobial activity) | – | – | – | – | – | G B | M. smegmatis | Organism, effect (morphology, biofilm and growth disruption) (B. subtilis): B. subtilis (I); Organism, effect (morphology, biofilm and growth disruption) (E. faecalis): E. faecalis (R); Organism, effect (morphology, biofilm and growth disruption) (MRSA): MRSA (M); Organism, effect (morphology, biofilm and growth disruption) (S. epidermidis): S. epidermidis (H); Organism, effect (morphology, biofilm and growth disruption) (S. pneumoniae): S. pneumoniae (A); Organism, effect (morphology, biofilm and growth disruption) (C. albicans): C. albicans (B) |
| PF-698 (chain 1 SSGRAGVKCRRPTGR; chain 2 SSGRAGVKCRRPTGR; Peptide with targeting and/or antimicrobial activity) | – | – | – | – | – | – | Mycobacteria spp | Organism, effect (morphology, biofilm and growth disruption) (E. faecalis): E. faecalis (A); Organism, effect (morphology, biofilm and growth disruption) (S. pneumoniae): S. pneumoniae (A); Organism, effect (morphology, biofilm and growth disruption) (C. albicans): C. albicans (H) |
